# According to patent publication US10189822B2, “Heterocyclic modulators of lipid synthesis” (3-V Biosciences, Inc., priority 2015, dated 2019):
# Tests used:
# [1] = tested on: Db/+ mice fed a high fructose diet; conditions: treated for 28 days; cited from earlier work
# [2] = tested on: db/db mice; conditions: mouse, in vivo; cited from earlier work
# [3] = tested on: HCV GT1b replicon cell line; experiment: Two-compound combination study in HCV GT1b replicon, MacSynergy II; type: cell-based
# Method: The DMSO stocks of the compounds used in the single compound testing were also used in this analysis. Combination dilution matrixes were generated by POD-810 in 96-well assay microplates. The POD-810 system was used to generate 7-point, 2-fold serial dilutions in a matrix format.
# The plates were incubated for 1 hour, and cell viability was measured on an Envision reader for cytotoxicity calculation. The liquid was then removed from the plates, after which 50 μL PBS and 50 μL firefly luciferase substrate solution were added to each well, after a 2-minute incubation period, chemiluminescence (for HCV replication calculation) was measured. The data were analyzed using MacSynergy™ II.
# [4] = tested on: HCV GT1b replicon cell line; conditions: expected value, Table 10; IFN-α; cited from earlier work
# [5] = tested on: HCV GT1b replicon cell line; type: cell-based; conditions: IFN-α
# [6] = tested on: HCV replicon GT1b cells; experiment: Cytotoxicity in HCV replicon GT1b cells, Cell Titer Flo (Example 5); type: cell-based; conditions: 72 hours, IFN-α
molecule,measurement,setting,value
CC12C[C@@]34C=CC(=O)[C@@](C)(CCC(=O)Nc5c(O)ccc(C(=O)O)c5O)C3[C@H](CC1C4)O2 (stereo partly drawn) [platensimycin],Insulin sensitivity,[1],improved insulin sensitivity
same,Liver triglyceride levels,[1],reduced liver triglyceride levels
same,Ambient glucose levels,[2],reduced
Cc1ccc(C(=O)N2CCC(F)(c3ccc(C#N)cc3)CC2)cc1NC(=O)NC1CCCOC1 (stereo not drawn) [(V-K)],Combination antiviral effect (in words),"[3]; in combination with IFN-α, RBV, Compounds B, C, D, E",additive antiviral activity
IFN-α,GT1b Expected EC50,[4],1 IU/mL
same,GT1b EC50 in dose ranging assay,[5]; Table 13,1.34 IU/mL
same,GT1b EC50,"[5]; single compound, 72 hours",1.34 IU/mL
same,GT1b CC50,[6],>1000 IU/mL
same,GT1b EC50 of single dose in drug combination,"[3]; individual compound in the combination matrix, IFN-α",3.43 IU/mL
